Values of other authors, collected in patent US12606521B2, “Methods of treating cancer” (Institute For Cancer Research, priority 2020, dated 2026).

Test system: cancer cells
Conditions: combination with decitabine

Cc1cc(C(C#N)c2ccc(Cl)cc2)c(Cl)cc1NC(=O)c1cc(I)cc(I)c1O (stereo not shown) [closantel]
Interaction with decitabine in killing cancer cells: synergizes with decitabine
